IC50 data for 32 compounds are collected here from ChEMBL document CHEMBL4627407, “Identification of a Potent Oridonin Analogue for Treatment of Triple-Negative Breast Cancer” (J Med Chem, 2020).

pIC50: −log10 of the molar value.

Holding throughout (type): functional, cell-based
Assay [1] deals with MDA-MB-468. Briefly: Antiproliferative activity against human MDA-MB-468 cells after 72 hrs by MTT assay. The settings on record: MDA-MB-468, 72 h. In general terms: Tetrazolium dyes change colour on reduction, which living cells bring about.
The test system of assay [2] is HCC1806. Briefly: Antiproliferative activity against human HCC1806 cells after 72 hrs by MTT assay. The conditions noted are these: HCC1806, 72 h.
Assay [3] has as its system MDA-MB-231. Briefly: Antiproliferative activity against human MDA-MB-231 cells after 72 hrs by MTT assay. The conditions noted are these: MDA-MB-231, 72 h.
In assay [4] the test system is DU-4475. Put plainly: Antiproliferative activity against human DU4475 cells after 72 hrs by MTT assay. The settings on record: DU-4475, 72 h.

The term pIC50 denotes the IC50 on a negative log10 scale, so that one unit is a factor of ten. A high value points to a small IC50. Take `C=C1C(=O)[C@@]23C(=O)[C@@H]4OC[C@]5(C=CCC(C)(C)[C@@H]45)[C@@H]2CC[C@@H]1[C@H]3OC(=O)CCc1ccccc1`: the pIC50 in assay [1] was 5.71; in assay [2], 5.79; in assay [3], 5.85; in assay [4], 5.76.

In the case of `C=C1C(=O)[C@@]23C(=O)[C@@H]4OC[C@]5(CCCC(C)(C)[C@@H]45)[C@@H]2CC[C@@H]1[C@H]3O`, the negative logarithm of the IC50 (pIC50) is 5.64 in assay [1], 5.69 in assay [2], 5.76 in assay [3] and 5.81 in assay [4].

On to `C=C1C(=O)[C@@]23C(=O)[C@@H]4OC[C@]5(C=CCC(C)(C)[C@@H]45)[C@@H]2CC[C@@H]1[C@H]3OC(=O)/C=C/c1ccsc1`, for which the pIC50 in assay [1] was 5.51; in assay [2] it was 5.56; in assay [3], 5.66; in assay [4] it was 5.55.

As for `C=C1C(=O)[C@@]23C(=O)[C@@H]4OC[C@]5(C=CCC(C)(C)[C@@H]45)[C@@H]2CC[C@@H]1[C@H]3OC(=O)c1cccnc1`, the pIC50 in assay [1] was 5.86; in assay [2] it was 5.56; in assay [3] it was 5.97; in assay [4], 5.58.

As for `C=C1C(=O)[C@@]23C(=O)[C@@H]4OC[C@@]5([C@H]4C(C)(C)CC[C@@H]5O)[C@@H]2CC[C@@H]1[C@H]3O`, the negative logarithm of the IC50 (pIC50) is 5.62 in assay [1], 5.62 in assay [2], 5.77 in assay [3] and 5.86 in assay [4].

Take `C=C1C(=O)[C@@]23C(=O)[C@@H]4OC[C@]5(C=CCC(C)(C)[C@@H]45)[C@@H]2CC[C@@H]1[C@H]3OC(=O)/C=C/c1ccncc1F`: the negative-log IC50 (pIC50) is 5.98 in assay [1], 5.94 in assay [2], 6.07 in assay [3] and 5.96 in assay [4].

Turning to `C=C1C(=O)[C@@]23C(=O)[C@@H]4OC[C@]5(C=CCC(C)(C)[C@@H]45)[C@@H]2CC[C@@H]1[C@H]3OC(=O)c1ccccn1`, the pIC50 in assay [1] is 5.83; in assay [2], 6.15; in assay [3], 5.95; in assay [4], 6.11.

On to `C=C1C(=O)[C@@]23C(=O)[C@@H]4OC[C@]5(C=CCC(C)(C)[C@@H]45)[C@@H]2CC[C@@H]1[C@H]3OC(=O)/C=C/c1ccc(Cl)cc1`, for which the negative logarithm of the IC50 (pIC50) in assay [1] is 5.63; in assay [2], 5.71; in assay [3], 5.79; in assay [4] it was 5.67.

For `C=C1C(=O)[C@@]23C(=O)[C@@H]4OC[C@]5(C=CCC(C)(C)[C@@H]45)[C@@H]2CC[C@@H]1[C@H]3OC(=O)C1CC1`, the negative-log IC50 (pIC50) in assay [1] was 6.00; in assay [2], 5.76; in assay [3], 6.12; in assay [4], 5.97.

In the case of `C=C1C(=O)[C@@]23C(=O)[C@@H]4OC[C@]5(C=CCC(C)(C)[C@@H]45)[C@@H]2CC[C@@H]1[C@H]3OC(=O)/C=C/c1ccnc(Cl)c1`, the pIC50 in assay [1] was 5.80; in assay [2], 5.68; in assay [3], 5.87; in assay [4], 5.77.

With `C=C1C(=O)[C@@]23C(=O)[C@@H]4OC[C@]5(C=CCC(C)(C)[C@@H]45)[C@@H]2CC[C@@H]1[C@H]3OC(=O)C1CCCCC1`, the negative-log IC50 (pIC50) in assay [1] is 5.62; in assay [2], 5.59; in assay [3], 5.80; in assay [4] it was 5.67.

Regarding `C=C1C(=O)[C@@]23C(=O)[C@@H]4OC[C@]5(C=CCC(C)(C)[C@@H]45)[C@@H]2CC[C@@H]1[C@H]3OC(=O)/C=C/c1ccc2occc2c1`, the negative-log IC50 (pIC50) in assay [1] is 5.61; in assay [2], 5.69; in assay [3] it was 5.67; in assay [4] it was 5.62.

Turning to `C=C1C(=O)[C@@]23C(=O)[C@@H]4OC[C@]5(C=CCC(C)(C)[C@@H]45)[C@@H]2CC[C@@H]1[C@H]3OC(=O)/C=C/c1cccnc1`, the pIC50 in assay [1] is 6.28; in assay [2], 6.51; in assay [3], 6.17; in assay [4], 6.47.

For `C=C1C(=O)[C@@]23C(=O)[C@@H]4OC[C@]5(C=CCC(C)(C)[C@@H]45)[C@@H]2CC[C@@H]1[C@H]3OC(=O)c1ccc(Cl)cc1`, the negative logarithm of the IC50 (pIC50) was 5.73 in assay [1], 5.71 in assay [2], 5.86 in assay [3] and 5.71 in assay [4].

`C=C1C(=O)[C@@]23C(=O)[C@@H]4OC[C@]5(C=CCC(C)(C)[C@@H]45)[C@@H]2CC[C@@H]1[C@H]3OC(=O)/C=C(\C)c1ccccc1`: the negative-log IC50 (pIC50) in assay [1] is 5.70; in assay [2], 5.73; in assay [3], 5.83; in assay [4], 5.61.

For `C=C1C(=O)[C@@]23C(=O)[C@@H]4OC[C@]5(C=CCC(C)(C)[C@@H]45)[C@@H]2CC[C@@H]1[C@H]3OC(=O)/C=C/c1ccnc(OC)c1`, the pIC50 was 5.76 in assay [1], 5.71 in assay [2], 5.85 in assay [3] and 5.79 in assay [4].

As to `C=C1C(=O)[C@@]23C(=O)[C@@H]4OC[C@]5(C=CCC(C)(C)[C@@H]45)[C@@H]2CC[C@@H]1[C@H]3OC(=O)/C=C/c1ccncc1Cl`, the pIC50 in assay [1] was 6.07; in assay [2] it was 6.09; in assay [3], 6.19; in assay [4], 6.07.

In the case of `C=C1C(=O)[C@@]23C(=O)[C@@H]4OC[C@]5(C=CCC(C)(C)[C@@H]45)[C@@H]2CC[C@@H]1[C@H]3O`, the negative-log IC50 (pIC50) was 6.00 in assay [1], 6.01 in assay [2], 5.89 in assay [3] and 6.04 in assay [4].

`C=C1C(=O)[C@@]23C(=O)[C@@H]4OC[C@]5(C=CCC(C)(C)[C@@H]45)[C@@H]2CC[C@@H]1[C@H]3OC(=O)/C=C/c1cncnc1`: the pIC50 was 6.08 in assay [1], 6.11 in assay [2], 5.97 in assay [3] and 6.21 in assay [4].

Take `C=C1C(=O)[C@@]23C(=O)[C@@H]4OC[C@]5(C=CCC(C)(C)[C@@H]45)[C@@H]2CC[C@@H]1[C@H]3OC(=O)/C=C/c1ccc(OC)cc1`: the pIC50 in assay [1] was 5.64; in assay [2], 5.71; in assay [3], 5.88; in assay [4], 5.63.

Take `C=C1C(=O)[C@@]23C(=O)[C@@H]4OC[C@]5(C=CCC(C)(C)[C@@H]45)[C@@H]2CC[C@@H]1[C@H]3OC(=O)/C=C/c1ccoc1`: the pIC50 in assay [1] is 5.87; in assay [2], 5.91; in assay [3], 5.89; in assay [4] it was 5.86.

For the compound `C=C1C(=O)[C@@]23C(=O)[C@@H]4OC[C@]5(C=CCC(C)(C)[C@@H]45)[C@@H]2CC[C@@H]1[C@H]3OC(=O)c1ccc2ncccc2c1`, the pIC50 in assay [1] was 5.59; in assay [2], 5.57; in assay [3], 5.68; in assay [4], 5.59.

Regarding `C=C1C(=O)[C@@]23C(=O)C[C@@H]4C(C)(C)CCC[C@@]4(COC(C)=O)[C@@H]2CC[C@@H]1[C@H]3OC(C)=O`, the pIC50 in assay [1] was 5.60; in assay [2] it was 5.54; in assay [3] it was 5.44; in assay [4], 5.74.

For `C=C1C(=O)[C@@]23C(=O)[C@@H]4OC[C@]5(C=CCC(C)(C)[C@@H]45)[C@@H]2CC[C@@H]1[C@H]3OC(=O)/C=C/c1ccccc1`, the negative logarithm of the IC50 (pIC50) in assay [1] was 5.79; in assay [2], 5.81; in assay [3] it was 5.86; in assay [4], 5.79.

Consider `C=C1C(=O)[C@@]23C(=O)[C@@H]4OC[C@]5(C=CCC(C)(C)[C@@H]45)[C@@H]2CC[C@@H]1[C@H]3OC(=O)c1ccc(F)cc1`, for which the negative logarithm of the IC50 (pIC50) was 5.69 in assay [1], 5.78 in assay [2], 5.85 in assay [3] and 5.69 in assay [4].

Turning to `C=C1C(=O)[C@@]23C(=O)[C@@H]4OC[C@]5(C=CCC(C)(C)[C@@H]45)[C@@H]2CC[C@@H]1[C@H]3OC(=O)c1ccccc1`, the pIC50 in assay [1] is 5.05; in assay [2], 5.15; in assay [3], 5.13; in assay [4], 5.07.

Turning to `C=C1C(=O)[C@@]23C(=O)[C@@H]4OC[C@]5(C=CCC(C)(C)[C@@H]45)[C@@H]2CC[C@@H]1[C@H]3OC(=O)c1ccncn1`, the negative logarithm of the IC50 (pIC50) in assay [1] is 6.07; in assay [2], 6.13; in assay [3], 6.19; in assay [4], 6.07.

Turning to `C=C1C(=O)[C@@]23C(=O)[C@@H]4OC[C@]5(C=CCC(C)(C)[C@@H]45)[C@@H]2CC[C@@H]1[C@H]3OC(=O)c1cnccn1`, the negative-log IC50 (pIC50) is 6.12 in assay [1], 6.14 in assay [2], 6.28 in assay [3] and 6.15 in assay [4].

With `C=C1C(=O)[C@@]23C(=O)[C@@H]4OC[C@]5(C=CCC(C)(C)[C@@H]45)[C@@H]2CC[C@@H]1[C@H]3OC(=O)c1ccncc1`, the pIC50 in assay [1] is 5.88; in assay [2] it was 5.86; in assay [3] it was 5.97; in assay [4], 5.85.

Take `C=C1C(=O)[C@@]23C(=O)[C@@H]4OC[C@]5(C=CCC(C)(C)[C@@H]45)[C@@H]2CC[C@@H]1[C@H]3OC(=O)/C=C/c1ccc2ccccc2c1`: the pIC50 in assay [1] is 5.65; in assay [2], 5.75; in assay [3], 5.83; in assay [4], 5.70.

With `C=C1C(=O)[C@@]23C(=O)[C@@H]4OC[C@]5(C=CCC(C)(C)[C@@H]45)[C@@H]2CC[C@@H]1[C@H]3OC(=O)/C=C/c1ccccn1`, the pIC50 was 5.97 in assay [1], 6.22 in assay [2], 5.84 in assay [3] and 6.33 in assay [4].

Regarding `C=C1C(=O)[C@@]23C(=O)[C@@H]4OC[C@]5(C=CCC(C)(C)[C@@H]45)[C@@H]2CC[C@@H]1[C@H]3OC(=O)/C=C/c1ccc(F)cc1`, the pIC50 in assay [1] is 5.80; in assay [2], 5.79; in assay [3], 5.93; in assay [4], 5.76.
